Measured values taken from PMC6953623 (Bioorganic & medicinal chemistry letters, 2019).

Biological target: AChE (Homo sapiens, UniProt P22303)
Type: biochemical
Details: result in words

Chain of AChE (P22303 32-614): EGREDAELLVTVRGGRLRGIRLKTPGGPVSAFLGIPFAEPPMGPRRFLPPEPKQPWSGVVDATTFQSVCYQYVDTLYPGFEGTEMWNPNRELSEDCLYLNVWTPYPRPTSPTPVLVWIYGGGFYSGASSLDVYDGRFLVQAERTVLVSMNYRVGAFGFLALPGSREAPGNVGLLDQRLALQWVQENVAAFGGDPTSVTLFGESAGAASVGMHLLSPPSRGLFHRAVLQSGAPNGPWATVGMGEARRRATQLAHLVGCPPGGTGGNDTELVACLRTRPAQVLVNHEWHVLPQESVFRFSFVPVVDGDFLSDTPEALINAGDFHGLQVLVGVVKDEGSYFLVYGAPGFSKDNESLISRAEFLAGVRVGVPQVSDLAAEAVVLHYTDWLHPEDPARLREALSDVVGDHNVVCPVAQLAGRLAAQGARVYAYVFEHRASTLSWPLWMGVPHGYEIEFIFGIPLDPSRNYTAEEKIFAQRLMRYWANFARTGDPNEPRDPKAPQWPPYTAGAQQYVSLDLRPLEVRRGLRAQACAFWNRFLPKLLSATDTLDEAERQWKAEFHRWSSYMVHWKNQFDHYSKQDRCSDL

With `Cc1cc(CSCCc2nc3ccccc3[nH]2)c(O)c(CSCCc2nc3ccccc3[nH]2)c1` [NSC620023] the “inhibition of AChE” value was “no inhibition of AChE at all”.
